Measurements as given in US6627202B2, “HBV core antigen particles with multiple immunogenic components attached via peptide ligands” (Biogen, Inc., priority 1998, dated 2003).
“And” between values parts separate entries of the source, which are not always exact repeats. Equal values may be shown once. Non-standard residues stand in square brackets, D forms with d. No end group written: not given here. βAla = NCCC(=O)O

B1: C-terminally truncated HBV core antigen aa3-148: C-terminally truncated HBV core antigen expressed in E.coli (protein)
chain: IDPYKEFGATVELLSFLPSDFFPSVRDLLDTASALYREALESPEHCSPHHTALRQAILCWGELMTLATWVGVNLEDPASRDLVVSYVNTNMGLKFRQLLWFHISCLTFGRETVIEYLVSFGVWIRTPPAYRPPNAPILSTLPETTV

Tested on: not listed separately
Assay: storage stability of HBV core antigen preparations
Format: physicochemical
Settings: 4° C., sucrose gradient fractions in TBS, sucrose (20%), NaN3 (0.02%)
Protocol: Expression of either HBV core antigen (aa3-183) or C-terminally truncated HBV core antigen aa3-148) in E.coli and purification were performed as described in Dyson and Murray (1995). Protein preparations were stored at 4° C. as sucrose gradient fractions in a buffer containing TBS, sucrose (20%) and NaN3 (0.02%).

Question: With B1 as the molecule, how does the “stability of protein preparation on storage” value read?
Answer: The value was “stable in this form for at least six months”.

Biological target: HBV core antigen (Hepatitis B virus genotype D subtype adw, UniProt P03147)
Assay: not given
Settings: fd fusion phage carrying the peptide sequence in the amino terminal region of gpIII; in solution, phage associated form; read-out: KD^Rel (nM) relative dissociation constant; cited from earlier work

Chain of HBV core antigen (P03147 3-183): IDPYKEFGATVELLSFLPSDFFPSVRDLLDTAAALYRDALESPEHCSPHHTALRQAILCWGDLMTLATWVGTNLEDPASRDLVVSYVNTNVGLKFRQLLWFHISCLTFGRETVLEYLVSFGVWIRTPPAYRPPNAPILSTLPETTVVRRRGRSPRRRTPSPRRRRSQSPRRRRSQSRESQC

Question: For ADGAHRSLLGRMKGA, which Kd is on record?
Answer: The Kd was 0.94 ± 0.12 nM.

Question: With ADGALLGRMKPA as the molecule, how does the Kd read?
Answer: Its Kd is 767 ± 8 nM.

Question: With ADGALLGRMKRA as the molecule, how does the Kd read?
Answer: The Kd was 181 ± 12 nM.

Question: Which Kd does the source give for ADGHRSSLLGRMKGA here?
Answer: The Kd was 1.4 ± 0.13 nM.

Question: For ADGPRSSLLGRMKGA, which Kd is on record?
Answer: The Kd was 0.84 ± 0.07 nM.

Question: For ADGSLLGRMKPA, which Kd is on record?
Answer: Its Kd is 322 ± 50 nM.

Question: For ADGSRSSLLGRMKGA, which Kd is on record?
Answer: The Kd was 1.96 ± 0.32 nM.

Question: With ADGTLLGRMKLA as the molecule, how does the Kd read?
Answer: The Kd was 20 ± 2 nM.

Question: With ADGTQRSLLGRMKGA as the molecule, how does the Kd read?
Answer: Its Kd is 0.84 ± 0.06 nM.

Question: Which Kd does the source give for ADGYQRSLLGRMKGA here?
Answer: Its Kd is 0.88 ± 0.08 nM.

Question: Which Kd does the source give for ADRSLLGRMKGA here?
Answer: Its Kd is 1.09 ± 0.02 nM.

Biological target: binding of L HBsAg to HBV core antigen (Hepatitis B virus genotype D subtype adw, UniProt P03147)
Assay: not given
Settings: N/D represents no observable inhibition; read-out: IC50 μM, concentration of peptide required to inhibit binding of L HBsAg to HBV core antigen at a half maximal level; cited from earlier work

Chain of binding of L HBsAg to HBV core antigen (P03147 3-183): as above

Question: Which IC50 does the source give for ACSLLGRMKG here?
Answer: Its IC50 is 26.2 ± 5 µM.

Question: Which IC50 does the source give for ADGSLLGRMKGAAG here?
Answer: The IC50 was 4.5 ± 0.8 µM.

Question: With ALLGRMKG as the molecule, how does the IC50 read?
Answer: The IC50 was 10 µM and 11 µM.

Question: With CLLGRMKC as the molecule, how does the IC50 read?
Answer: The IC50 was 652 ± 74 µM.

Question: With DGSLLGRMKGAA as the molecule, how does the IC50 read?
Answer: The IC50 was 3 ± 0.4 µM.

Question: With HRSLLGRMKGA as the molecule, how does the IC50 read?
Answer: Its IC50 is 0.5 ± 0.04 µM.

Question: Which IC50 does the source give for LGRMKG here?
Answer: The IC50 was 980 ± 157 µM.

Question: With LLGRMKG as the molecule, how does the IC50 read?
Answer: Its IC50 is 46.2 ± 7.4 µM.

Question: For MHRSLLGRMKGA, which IC50 is on record?
Answer: Its IC50 is 0.8 ± 0.1 µM.

Question: For MHRSLLGRMKGAG(β-A)GC, which IC50 is on record?
Answer: The IC50 was 3.8 ± 0.69 µM.

Question: With RSLLGRMKGA as the molecule, how does the IC50 read?
Answer: The IC50 was 0.29 ± 0.02 µM.

Question: For RSLLGRMKGA(β-A)C (RSLLGRMKGA[βAla]C), which IC50 is on record?
Answer: The IC50 was 0.29 ± 0.03 µM.

Question: With SLLGRMK as the molecule, how does the IC50 read?
Answer: The IC50 was 40.7 ± 4.8 µM.

Question: With SLLGRMKG as the molecule, how does the IC50 read?
Answer: Its IC50 is 6.4 ± 0.7 µM.

Question: Which IC50 does the source give for SLLGRMKG(β-A)C (SLLGRMKG[βAla]C) here?
Answer: The IC50 was 1.8 ± 0.4 µM.

Question: With SLLGRMKGA as the molecule, how does the IC50 read?
Answer: Its IC50 is 2.4 ± 0.2 µM.
